From the kinase profiling compilation of Christmann-Franck et al. (2016)

Target: ADRBK1 (human) (UniProt P25098)
Assay: radiometric filter-binding kinase assay, Kinase HotSpot
Details: compound 0.5 µM; ATP 10 µM

| SMILES | residual activity [%] |
| --- | --- |
| CC(C)(C)c1nc2c3ccc(F)cc3c3c(=O)[nH]ccc3c2[nH]1 | 98.5 |
| Cc1cc2ncc(-c3ccccc3)nc2cc1C | 92.5 |
| Nc1n[nH]c2nnc(-c3c(-c4ccccc4)nn4ccccc34)cc12 | 95 |

Target: ULK2 (human) (UniProt Q8IYT8)
Assay: as above
Details: compound 0.5 µM; ATP 10 µM

Chain of ULK2 (human) (Q8IYT8 whole entry, looked up): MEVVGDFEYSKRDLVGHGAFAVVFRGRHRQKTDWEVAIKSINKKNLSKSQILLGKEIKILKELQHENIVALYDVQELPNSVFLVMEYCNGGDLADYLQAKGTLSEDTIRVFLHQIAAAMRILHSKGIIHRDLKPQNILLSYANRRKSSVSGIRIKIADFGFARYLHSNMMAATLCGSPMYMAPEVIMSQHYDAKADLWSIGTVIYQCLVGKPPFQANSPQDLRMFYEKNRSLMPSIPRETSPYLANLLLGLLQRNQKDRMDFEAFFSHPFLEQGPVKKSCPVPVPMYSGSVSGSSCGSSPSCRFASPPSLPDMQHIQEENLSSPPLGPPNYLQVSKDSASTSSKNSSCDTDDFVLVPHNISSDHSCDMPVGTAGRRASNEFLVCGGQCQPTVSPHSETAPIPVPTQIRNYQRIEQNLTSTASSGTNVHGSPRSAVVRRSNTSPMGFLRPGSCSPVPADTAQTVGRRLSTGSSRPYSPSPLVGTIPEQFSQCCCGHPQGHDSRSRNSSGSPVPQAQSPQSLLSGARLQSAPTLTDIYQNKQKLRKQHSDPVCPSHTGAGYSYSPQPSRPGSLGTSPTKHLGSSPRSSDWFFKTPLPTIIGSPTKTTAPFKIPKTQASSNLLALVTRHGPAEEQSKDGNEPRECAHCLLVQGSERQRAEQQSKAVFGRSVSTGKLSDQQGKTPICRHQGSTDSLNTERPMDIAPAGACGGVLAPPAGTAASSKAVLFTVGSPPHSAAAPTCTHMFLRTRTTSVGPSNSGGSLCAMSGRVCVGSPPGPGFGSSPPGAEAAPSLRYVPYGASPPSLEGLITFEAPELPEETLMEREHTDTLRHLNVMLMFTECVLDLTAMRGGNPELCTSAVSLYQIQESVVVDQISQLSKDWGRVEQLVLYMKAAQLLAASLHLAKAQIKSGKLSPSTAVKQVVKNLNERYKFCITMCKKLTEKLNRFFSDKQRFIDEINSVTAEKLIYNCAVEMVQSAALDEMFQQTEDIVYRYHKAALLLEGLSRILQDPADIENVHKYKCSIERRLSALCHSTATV

| SMILES | residual activity [%] |
| --- | --- |
| CSc1nc(-c2ccc(F)cc2)c(-c2ccnc(NC(C)c3ccccc3)c2)[nH]1 (stereo not drawn) | 94.1 |
| CCCNC(=O)Nc1ccc(Oc2ncnc3cc(OC)c(OC)cc23)cc1Cl | 89.2 |
| CC(C)(C)c1nc2c3ccc(F)cc3c3c(=O)[nH]ccc3c2[nH]1 | 41.5 |
| Cc1cc2ncc(-c3ccccc3)nc2cc1C | 108 |
| Nc1n[nH]c2nnc(-c3c(-c4ccccc4)nn4ccccc34)cc12 | 100 |

Target: STK24 (human) (UniProt Q9Y6E0)
Assay: as above
Details: compound 0.5 µM; ATP 10 µM

| SMILES | residual activity [%] |
| --- | --- |
| CSc1nc(-c2ccc(F)cc2)c(-c2ccnc(NC(C)c3ccccc3)c2)[nH]1 (stereo not drawn) | 113 |
| CCCNC(=O)Nc1ccc(Oc2ncnc3cc(OC)c(OC)cc23)cc1Cl | 91.7 |
| CC(C)(C)c1nc2c3ccc(F)cc3c3c(=O)[nH]ccc3c2[nH]1 | 82.4 |
| Cc1cc2ncc(-c3ccccc3)nc2cc1C | 94.5 |
| Nc1n[nH]c2nnc(-c3c(-c4ccccc4)nn4ccccc34)cc12 | 74.6 |

Target: CSNK2A1 (human) (UniProt P68400)
Assay: as above
Details: compound 0.5 µM; ATP 10 µM

| SMILES | residual activity [%] |
| --- | --- |
| CSc1nc(-c2ccc(F)cc2)c(-c2ccnc(NC(C)c3ccccc3)c2)[nH]1 (stereo not drawn) | 100 |
| CCCNC(=O)Nc1ccc(Oc2ncnc3cc(OC)c(OC)cc23)cc1Cl | 105 |
| CC(C)(C)c1nc2c3ccc(F)cc3c3c(=O)[nH]ccc3c2[nH]1 | 82.9 |
| Cc1cc2ncc(-c3ccccc3)nc2cc1C | 102 |
| Nc1n[nH]c2nnc(-c3c(-c4ccccc4)nn4ccccc34)cc12 | 94.8 |

Target: BMX (human) (UniProt P51813)
Assay: as above
Details: compound 0.5 µM; ATP 10 µM

Chain of BMX (human) (P51813 whole entry, looked up): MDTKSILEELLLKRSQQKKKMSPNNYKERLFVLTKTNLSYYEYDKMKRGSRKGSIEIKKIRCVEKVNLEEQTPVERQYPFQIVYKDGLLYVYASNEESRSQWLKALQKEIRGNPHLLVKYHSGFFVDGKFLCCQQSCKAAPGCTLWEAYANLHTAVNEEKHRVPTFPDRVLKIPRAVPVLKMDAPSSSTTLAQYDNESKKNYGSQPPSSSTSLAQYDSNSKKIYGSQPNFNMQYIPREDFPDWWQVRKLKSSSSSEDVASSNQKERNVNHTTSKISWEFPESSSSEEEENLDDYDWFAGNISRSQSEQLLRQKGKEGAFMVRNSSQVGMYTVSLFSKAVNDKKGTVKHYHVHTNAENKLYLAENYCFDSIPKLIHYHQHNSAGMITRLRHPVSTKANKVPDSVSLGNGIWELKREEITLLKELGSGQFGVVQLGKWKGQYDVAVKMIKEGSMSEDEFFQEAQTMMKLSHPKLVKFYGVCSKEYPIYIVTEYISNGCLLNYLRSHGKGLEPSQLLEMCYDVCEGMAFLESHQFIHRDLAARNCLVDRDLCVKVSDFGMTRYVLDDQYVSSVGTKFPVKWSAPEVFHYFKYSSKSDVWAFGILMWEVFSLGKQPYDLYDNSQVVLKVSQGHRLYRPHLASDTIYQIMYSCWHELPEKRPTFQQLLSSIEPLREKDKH

| SMILES | residual activity [%] |
| --- | --- |
| CSc1nc(-c2ccc(F)cc2)c(-c2ccnc(NC(C)c3ccccc3)c2)[nH]1 (stereo not drawn) | 102 |
| CCCNC(=O)Nc1ccc(Oc2ncnc3cc(OC)c(OC)cc23)cc1Cl | 93.6 |
| CC(C)(C)c1nc2c3ccc(F)cc3c3c(=O)[nH]ccc3c2[nH]1 | 71.9 |
| Cc1cc2ncc(-c3ccccc3)nc2cc1C | 90 |
| Nc1n[nH]c2nnc(-c3c(-c4ccccc4)nn4ccccc34)cc12 | 84.4 |

Target: SRPK1 (human) (UniProt Q96SB4)
Assay: as above
Details: compound 0.5 µM; ATP 10 µM

| SMILES | residual activity [%] |
| --- | --- |
| CSc1nc(-c2ccc(F)cc2)c(-c2ccnc(NC(C)c3ccccc3)c2)[nH]1 (stereo not drawn) | 106 |
| CCCNC(=O)Nc1ccc(Oc2ncnc3cc(OC)c(OC)cc23)cc1Cl | 102 |
| CC(C)(C)c1nc2c3ccc(F)cc3c3c(=O)[nH]ccc3c2[nH]1 | 115 |
| Cc1cc2ncc(-c3ccccc3)nc2cc1C | 103 |
| Nc1n[nH]c2nnc(-c3c(-c4ccccc4)nn4ccccc34)cc12 | 83.7 |

Target: DSTYK (human) (UniProt Q6XUX3)
Assay: as above
Details: compound 0.5 µM; ATP 10 µM

| SMILES | residual activity [%] |
| --- | --- |
| CSc1nc(-c2ccc(F)cc2)c(-c2ccnc(NC(C)c3ccccc3)c2)[nH]1 (stereo not drawn) | 102 |
| CCCNC(=O)Nc1ccc(Oc2ncnc3cc(OC)c(OC)cc23)cc1Cl | 88.6 |
| CC(C)(C)c1nc2c3ccc(F)cc3c3c(=O)[nH]ccc3c2[nH]1 | 62 |
| Cc1cc2ncc(-c3ccccc3)nc2cc1C | 95.5 |
| Nc1n[nH]c2nnc(-c3c(-c4ccccc4)nn4ccccc34)cc12 | 95.9 |

Target: EPHA5 (human) (UniProt P54756)
Assay: as above
Details: compound 0.5 µM; ATP 10 µM

Chain of EPHA5 (human) (P54756 whole entry, looked up): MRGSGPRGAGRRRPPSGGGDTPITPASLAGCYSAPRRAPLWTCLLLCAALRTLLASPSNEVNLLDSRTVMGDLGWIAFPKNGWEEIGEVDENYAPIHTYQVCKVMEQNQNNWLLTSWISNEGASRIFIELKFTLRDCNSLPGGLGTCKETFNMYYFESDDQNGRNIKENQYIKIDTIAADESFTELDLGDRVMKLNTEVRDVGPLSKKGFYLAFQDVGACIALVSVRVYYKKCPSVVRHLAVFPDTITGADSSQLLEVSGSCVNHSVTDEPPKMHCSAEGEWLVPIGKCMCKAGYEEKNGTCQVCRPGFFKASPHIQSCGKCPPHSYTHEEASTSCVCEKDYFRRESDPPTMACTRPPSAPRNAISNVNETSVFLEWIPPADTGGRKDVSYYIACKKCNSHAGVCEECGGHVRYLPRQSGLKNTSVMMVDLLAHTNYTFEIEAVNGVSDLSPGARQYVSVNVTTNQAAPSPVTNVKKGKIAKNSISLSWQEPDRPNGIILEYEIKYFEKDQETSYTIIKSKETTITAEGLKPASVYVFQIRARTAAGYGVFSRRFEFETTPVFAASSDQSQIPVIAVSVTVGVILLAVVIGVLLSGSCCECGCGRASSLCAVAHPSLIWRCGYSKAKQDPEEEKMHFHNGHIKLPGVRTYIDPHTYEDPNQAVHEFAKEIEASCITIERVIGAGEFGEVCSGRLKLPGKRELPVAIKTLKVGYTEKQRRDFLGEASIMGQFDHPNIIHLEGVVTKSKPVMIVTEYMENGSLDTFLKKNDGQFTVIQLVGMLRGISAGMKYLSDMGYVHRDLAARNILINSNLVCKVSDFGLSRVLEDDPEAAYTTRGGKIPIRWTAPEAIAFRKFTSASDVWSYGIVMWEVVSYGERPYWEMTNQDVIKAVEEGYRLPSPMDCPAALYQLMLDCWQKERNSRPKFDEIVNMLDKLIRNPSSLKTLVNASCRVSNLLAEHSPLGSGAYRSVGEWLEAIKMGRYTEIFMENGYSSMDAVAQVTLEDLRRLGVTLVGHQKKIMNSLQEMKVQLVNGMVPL

| SMILES | residual activity [%] |
| --- | --- |
| CSc1nc(-c2ccc(F)cc2)c(-c2ccnc(NC(C)c3ccccc3)c2)[nH]1 (stereo not drawn) | 106 |
| CCCNC(=O)Nc1ccc(Oc2ncnc3cc(OC)c(OC)cc23)cc1Cl | 81.8 |
| CC(C)(C)c1nc2c3ccc(F)cc3c3c(=O)[nH]ccc3c2[nH]1 | 100 |
| Cc1cc2ncc(-c3ccccc3)nc2cc1C | 96.1 |
| Nc1n[nH]c2nnc(-c3c(-c4ccccc4)nn4ccccc34)cc12 | 101 |

Target: CSNK1G2 (human) (UniProt P78368)
Assay: as above
Details: compound 0.5 µM; ATP 10 µM

| SMILES | residual activity [%] |
| --- | --- |
| CSc1nc(-c2ccc(F)cc2)c(-c2ccnc(NC(C)c3ccccc3)c2)[nH]1 (stereo not drawn) | 75.6 |
| CCCNC(=O)Nc1ccc(Oc2ncnc3cc(OC)c(OC)cc23)cc1Cl | 84.8 |
| CC(C)(C)c1nc2c3ccc(F)cc3c3c(=O)[nH]ccc3c2[nH]1 | 100 |
| Cc1cc2ncc(-c3ccccc3)nc2cc1C | 86.5 |
| Nc1n[nH]c2nnc(-c3c(-c4ccccc4)nn4ccccc34)cc12 | 93.7 |

Target: NEK3 (human) (UniProt P51956)
Assay: as above
Details: compound 0.5 µM; ATP 10 µM

| SMILES | residual activity [%] |
| --- | --- |
| CSc1nc(-c2ccc(F)cc2)c(-c2ccnc(NC(C)c3ccccc3)c2)[nH]1 (stereo not drawn) | 94.7 |
| CCCNC(=O)Nc1ccc(Oc2ncnc3cc(OC)c(OC)cc23)cc1Cl | 93.8 |
| CC(C)(C)c1nc2c3ccc(F)cc3c3c(=O)[nH]ccc3c2[nH]1 | 74.4 |
| Cc1cc2ncc(-c3ccccc3)nc2cc1C | 93.7 |
| Nc1n[nH]c2nnc(-c3c(-c4ccccc4)nn4ccccc34)cc12 | 82.7 |

Target: AKT2 (human) (UniProt P31751)
Assay: as above
Details: compound 0.5 µM; ATP 10 µM

Chain of AKT2 (human) (P31751 whole entry, looked up): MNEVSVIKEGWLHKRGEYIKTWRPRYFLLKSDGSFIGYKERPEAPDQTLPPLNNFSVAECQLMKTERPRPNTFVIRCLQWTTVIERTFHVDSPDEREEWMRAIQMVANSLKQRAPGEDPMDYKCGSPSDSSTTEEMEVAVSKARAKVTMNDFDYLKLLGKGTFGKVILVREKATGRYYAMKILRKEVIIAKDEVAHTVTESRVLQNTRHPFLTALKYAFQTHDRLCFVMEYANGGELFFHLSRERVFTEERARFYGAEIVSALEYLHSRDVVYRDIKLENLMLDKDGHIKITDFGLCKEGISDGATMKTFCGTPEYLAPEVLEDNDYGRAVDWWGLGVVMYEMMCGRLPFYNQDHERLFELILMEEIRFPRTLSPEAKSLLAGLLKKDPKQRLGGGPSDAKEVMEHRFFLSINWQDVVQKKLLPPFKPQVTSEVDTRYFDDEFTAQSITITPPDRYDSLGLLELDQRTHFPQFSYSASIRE

| SMILES | residual activity [%] |
| --- | --- |
| CSc1nc(-c2ccc(F)cc2)c(-c2ccnc(NC(C)c3ccccc3)c2)[nH]1 (stereo not drawn) | 96.8 |
| CCCNC(=O)Nc1ccc(Oc2ncnc3cc(OC)c(OC)cc23)cc1Cl | 89.7 |
| CC(C)(C)c1nc2c3ccc(F)cc3c3c(=O)[nH]ccc3c2[nH]1 | 89.8 |
| Cc1cc2ncc(-c3ccccc3)nc2cc1C | 99.7 |
| Nc1n[nH]c2nnc(-c3c(-c4ccccc4)nn4ccccc34)cc12 | 97.5 |

Target: FGFR3 (human) (UniProt P22607)
Assay: as above
Details: compound 0.5 µM; ATP 10 µM

| SMILES | residual activity [%] |
| --- | --- |
| CSc1nc(-c2ccc(F)cc2)c(-c2ccnc(NC(C)c3ccccc3)c2)[nH]1 (stereo not drawn) | 83.7 |
| CCCNC(=O)Nc1ccc(Oc2ncnc3cc(OC)c(OC)cc23)cc1Cl | 84.5 |
| CC(C)(C)c1nc2c3ccc(F)cc3c3c(=O)[nH]ccc3c2[nH]1 | 93 |
| Cc1cc2ncc(-c3ccccc3)nc2cc1C | 98 |
| Nc1n[nH]c2nnc(-c3c(-c4ccccc4)nn4ccccc34)cc12 | 102 |

Target: ROCK2 (human) (UniProt O75116)
Assay: as above
Details: compound 0.5 µM; ATP 10 µM

| SMILES | residual activity [%] |
| --- | --- |
| CSc1nc(-c2ccc(F)cc2)c(-c2ccnc(NC(C)c3ccccc3)c2)[nH]1 (stereo not drawn) | 95.3 |
| CCCNC(=O)Nc1ccc(Oc2ncnc3cc(OC)c(OC)cc23)cc1Cl | 97.7 |
| CC(C)(C)c1nc2c3ccc(F)cc3c3c(=O)[nH]ccc3c2[nH]1 | 70.7 |
| Cc1cc2ncc(-c3ccccc3)nc2cc1C | 88.1 |
| Nc1n[nH]c2nnc(-c3c(-c4ccccc4)nn4ccccc34)cc12 | 89.6 |

Target: NEK4 (human) (UniProt P51957)
Assay: as above
Details: compound 0.5 µM; ATP 10 µM

| SMILES | residual activity [%] |
| --- | --- |
| CSc1nc(-c2ccc(F)cc2)c(-c2ccnc(NC(C)c3ccccc3)c2)[nH]1 (stereo not drawn) | 102 |
| CCCNC(=O)Nc1ccc(Oc2ncnc3cc(OC)c(OC)cc23)cc1Cl | 76 |
| CC(C)(C)c1nc2c3ccc(F)cc3c3c(=O)[nH]ccc3c2[nH]1 | 65.6 |
| Cc1cc2ncc(-c3ccccc3)nc2cc1C | 99.3 |
| Nc1n[nH]c2nnc(-c3c(-c4ccccc4)nn4ccccc34)cc12 | 88.4 |

Target: FLT1 (human) (UniProt P17948)
Assay: as above
Details: compound 0.5 µM; ATP 10 µM

| SMILES | residual activity [%] |
| --- | --- |
| CSc1nc(-c2ccc(F)cc2)c(-c2ccnc(NC(C)c3ccccc3)c2)[nH]1 (stereo not drawn) | 71.5 |
| CCCNC(=O)Nc1ccc(Oc2ncnc3cc(OC)c(OC)cc23)cc1Cl | 65.2 |
| CC(C)(C)c1nc2c3ccc(F)cc3c3c(=O)[nH]ccc3c2[nH]1 | 92.3 |
| Cc1cc2ncc(-c3ccccc3)nc2cc1C | 85.2 |
| Nc1n[nH]c2nnc(-c3c(-c4ccccc4)nn4ccccc34)cc12 | 96.7 |

Target: SLK (human) (UniProt Q9H2G2)
Assay: as above
Details: compound 0.5 µM; ATP 10 µM

Chain of SLK (human) (Q9H2G2 whole entry, looked up): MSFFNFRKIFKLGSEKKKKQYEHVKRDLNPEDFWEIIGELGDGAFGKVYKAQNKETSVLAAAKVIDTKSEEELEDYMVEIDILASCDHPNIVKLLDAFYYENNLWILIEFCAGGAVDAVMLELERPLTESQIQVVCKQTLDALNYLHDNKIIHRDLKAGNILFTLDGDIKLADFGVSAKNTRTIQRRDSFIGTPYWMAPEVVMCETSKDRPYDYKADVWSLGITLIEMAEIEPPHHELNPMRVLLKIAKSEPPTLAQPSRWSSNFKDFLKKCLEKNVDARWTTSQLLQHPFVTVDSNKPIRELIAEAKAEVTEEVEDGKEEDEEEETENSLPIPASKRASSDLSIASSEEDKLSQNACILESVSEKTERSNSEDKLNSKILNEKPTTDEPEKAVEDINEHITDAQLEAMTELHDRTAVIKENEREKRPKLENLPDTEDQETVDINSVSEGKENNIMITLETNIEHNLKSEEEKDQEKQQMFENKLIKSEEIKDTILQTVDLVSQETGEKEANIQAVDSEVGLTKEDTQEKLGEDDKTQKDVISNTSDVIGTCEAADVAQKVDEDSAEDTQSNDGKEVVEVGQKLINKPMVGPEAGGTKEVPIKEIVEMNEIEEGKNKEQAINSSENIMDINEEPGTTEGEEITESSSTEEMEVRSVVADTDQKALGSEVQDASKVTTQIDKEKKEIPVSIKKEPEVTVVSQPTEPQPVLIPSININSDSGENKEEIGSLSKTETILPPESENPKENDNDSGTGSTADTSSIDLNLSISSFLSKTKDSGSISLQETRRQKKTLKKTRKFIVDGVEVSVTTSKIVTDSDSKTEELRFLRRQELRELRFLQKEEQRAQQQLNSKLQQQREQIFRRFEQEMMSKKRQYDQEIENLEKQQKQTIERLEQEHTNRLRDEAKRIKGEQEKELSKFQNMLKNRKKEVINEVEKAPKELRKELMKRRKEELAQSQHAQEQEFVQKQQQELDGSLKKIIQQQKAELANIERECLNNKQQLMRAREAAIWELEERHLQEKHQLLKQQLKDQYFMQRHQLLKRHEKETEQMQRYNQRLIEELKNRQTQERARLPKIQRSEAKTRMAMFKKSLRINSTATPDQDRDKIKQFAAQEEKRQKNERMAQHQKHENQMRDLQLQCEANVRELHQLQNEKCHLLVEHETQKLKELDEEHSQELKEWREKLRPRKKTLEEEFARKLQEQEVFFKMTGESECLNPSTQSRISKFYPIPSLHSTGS

| SMILES | residual activity [%] |
| --- | --- |
| CSc1nc(-c2ccc(F)cc2)c(-c2ccnc(NC(C)c3ccccc3)c2)[nH]1 (stereo not drawn) | 104 |
| CCCNC(=O)Nc1ccc(Oc2ncnc3cc(OC)c(OC)cc23)cc1Cl | 80 |
| CC(C)(C)c1nc2c3ccc(F)cc3c3c(=O)[nH]ccc3c2[nH]1 | 91.4 |
| Cc1cc2ncc(-c3ccccc3)nc2cc1C | 91.9 |
| Nc1n[nH]c2nnc(-c3c(-c4ccccc4)nn4ccccc34)cc12 | 94 |

Target: SRC (human) (UniProt P12931)
Assay: as above
Details: compound 0.5 µM; ATP 10 µM

| SMILES | residual activity [%] |
| --- | --- |
| CSc1nc(-c2ccc(F)cc2)c(-c2ccnc(NC(C)c3ccccc3)c2)[nH]1 (stereo not drawn) | 99 |
| CCCNC(=O)Nc1ccc(Oc2ncnc3cc(OC)c(OC)cc23)cc1Cl | 98.6 |
| CC(C)(C)c1nc2c3ccc(F)cc3c3c(=O)[nH]ccc3c2[nH]1 | 93.4 |
| Cc1cc2ncc(-c3ccccc3)nc2cc1C | 104 |
| Nc1n[nH]c2nnc(-c3c(-c4ccccc4)nn4ccccc34)cc12 | 100 |

Target: MAPK10 (human) (UniProt P53779)
Assay: as above
Details: compound 0.5 µM; ATP 10 µM

Chain of MAPK10 (human) (P53779 whole entry, looked up): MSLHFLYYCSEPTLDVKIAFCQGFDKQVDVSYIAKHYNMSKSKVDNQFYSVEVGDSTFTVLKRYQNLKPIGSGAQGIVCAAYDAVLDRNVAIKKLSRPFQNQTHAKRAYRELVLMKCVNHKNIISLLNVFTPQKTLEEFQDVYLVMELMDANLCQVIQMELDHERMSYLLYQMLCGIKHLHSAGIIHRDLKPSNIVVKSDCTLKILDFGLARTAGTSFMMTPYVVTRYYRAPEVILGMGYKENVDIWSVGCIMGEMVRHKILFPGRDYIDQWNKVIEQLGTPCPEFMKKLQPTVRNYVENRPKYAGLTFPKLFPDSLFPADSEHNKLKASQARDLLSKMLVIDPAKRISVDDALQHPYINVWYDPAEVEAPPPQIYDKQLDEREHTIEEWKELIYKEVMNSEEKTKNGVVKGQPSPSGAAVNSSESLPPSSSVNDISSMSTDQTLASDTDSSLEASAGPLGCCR

| SMILES | residual activity [%] |
| --- | --- |
| CSc1nc(-c2ccc(F)cc2)c(-c2ccnc(NC(C)c3ccccc3)c2)[nH]1 (stereo not drawn) | 125 |
| CCCNC(=O)Nc1ccc(Oc2ncnc3cc(OC)c(OC)cc23)cc1Cl | 100 |
| CC(C)(C)c1nc2c3ccc(F)cc3c3c(=O)[nH]ccc3c2[nH]1 | 107 |
| Cc1cc2ncc(-c3ccccc3)nc2cc1C | 103 |
| Nc1n[nH]c2nnc(-c3c(-c4ccccc4)nn4ccccc34)cc12 | 103 |

Target: TTK (human) (UniProt P33981)
Assay: as above
Details: compound 0.5 µM; ATP 10 µM

| SMILES | residual activity [%] |
| --- | --- |
| CSc1nc(-c2ccc(F)cc2)c(-c2ccnc(NC(C)c3ccccc3)c2)[nH]1 (stereo not drawn) | 102 |
| CCCNC(=O)Nc1ccc(Oc2ncnc3cc(OC)c(OC)cc23)cc1Cl | 88.6 |
| CC(C)(C)c1nc2c3ccc(F)cc3c3c(=O)[nH]ccc3c2[nH]1 | 65.3 |
| Cc1cc2ncc(-c3ccccc3)nc2cc1C | 91 |
| Nc1n[nH]c2nnc(-c3c(-c4ccccc4)nn4ccccc34)cc12 | 110 |

Target: ABL2 (human) (UniProt P42684)
Assay: as above
Details: compound 0.5 µM; ATP 10 µM

| SMILES | residual activity [%] |
| --- | --- |
| CSc1nc(-c2ccc(F)cc2)c(-c2ccnc(NC(C)c3ccccc3)c2)[nH]1 (stereo not drawn) | 95.7 |
| CCCNC(=O)Nc1ccc(Oc2ncnc3cc(OC)c(OC)cc23)cc1Cl | 90.5 |
| CC(C)(C)c1nc2c3ccc(F)cc3c3c(=O)[nH]ccc3c2[nH]1 | 90.3 |
| Cc1cc2ncc(-c3ccccc3)nc2cc1C | 103 |
| Nc1n[nH]c2nnc(-c3c(-c4ccccc4)nn4ccccc34)cc12 | 57.5 |

Target: CDK2 CCNE1 (human) (UniProt P24941+P24864)
Assay: as above
Details: compound 0.5 µM; ATP 10 µM

| SMILES | residual activity [%] |
| --- | --- |
| CSc1nc(-c2ccc(F)cc2)c(-c2ccnc(NC(C)c3ccccc3)c2)[nH]1 (stereo not drawn) | 88 |
| CCCNC(=O)Nc1ccc(Oc2ncnc3cc(OC)c(OC)cc23)cc1Cl | 95.2 |
| CC(C)(C)c1nc2c3ccc(F)cc3c3c(=O)[nH]ccc3c2[nH]1 | 87.5 |
| Cc1cc2ncc(-c3ccccc3)nc2cc1C | 91.8 |
| Nc1n[nH]c2nnc(-c3c(-c4ccccc4)nn4ccccc34)cc12 | 101 |
